Laboratory results from patent US10975126B1 (priority 2020, dated 2021).
No end group written: not given here.

Test system: MERS-CoV
Assay type: cell-based, MERS-CoV (CoV/KOR/KNIH/002_05_2015) in Vero cells

SLTQINWTLLDLTYEMESLQQVVKALNEYYIDLKEL [Peptide 5]
inhibition of MERS-CoV / decrease in plaque formation (in words): strong inhibition
